Laboratory results taken from patent publication US10730875B2, “Substituted imidazo[1,2-A]pyridin-2-ylamine compounds, and pharmaceutical compositions and methods of use thereof” (JN Therapeutics, priority 2015, dated 2020).

Key:
[1] = Pharmacokinetics in Sprague-Dawley rats (HPLC-MS/MS of plasma); assay type: in vivo; settings: rat
Method: The PK parameters of compound 14 were determined in Sprague-Dawley rats (Hubei Provincial Laboratory Animal Research Center) after a single oral (p.o) and intravenous (i.v.) administration using HPLC-MS/MS (Shimadzu LC-20ACXR HPLC coupled with AB Sciex API 4500 Qtrap).
A sensitive and specific HPLC-MS/MS method was developed for the determination of the compound in rat plasma. Multiple reaction monitoring (MRM) mode was used for the quantification of the compound by monitoring the ion transitions at m/z from 443.1 to 375.1. Compound 2 was used as an internal standard and monitored by the ion transition at m/z from 427.1 to 357.1. Calibration curves were constructed in the range of 1.00-1000 ng/mL in rat plasma extract by a 1/×2 weighted quadratic regression. The regression coefficients obtained were greater than 0.99 and back calculated values comprised in the range of ±15% from their nominal concentration.
For the intravenous administration, the compound was dissolved in 25% PEG200 in saline and intravenously administrated at a single dose of 1.00 mg/kg. For the oral administration, the compound was suspended in 0.5% sodium carboxymethylcellulose (CMC-Na) solution and intragastrically administrated at a single dose of 5.00 mg/kg. Approximately 0.200 mL of blood sample were collected from orbital venous plexus at 0 (predose), 0.25, 0.5, 1, 2, 4, 8, 12 and 24 hrs post dosing. All samples were placed into EDTA-K2-treated tubes and centrifuged at 3,500 rpm at 4° C. for 10 min to separate the plasma fractions. The plasma samples were stored at −20° C. prior to analysis. The plasma samples were analyzed with the HPLC-MS/MS method.

[2] = biological target: human Janus kinase 3 (JAK3), recombinant catalytic domain (Homo sapiens (Human), UniProt P52333); assay: LanthaScreen TR-FRET enzymatic assay, JAK3; assay type: biochemical; settings: TR-FRET, 1 mM ATP, GFP-STAT1 substrate; read-out: Inhibitory Activity IC50 JAK3
Chain of human Janus kinase 3 (JAK3), recombinant catalytic domain (Homo sapiens (Human), UniProt P52333) (P52333 781-1124): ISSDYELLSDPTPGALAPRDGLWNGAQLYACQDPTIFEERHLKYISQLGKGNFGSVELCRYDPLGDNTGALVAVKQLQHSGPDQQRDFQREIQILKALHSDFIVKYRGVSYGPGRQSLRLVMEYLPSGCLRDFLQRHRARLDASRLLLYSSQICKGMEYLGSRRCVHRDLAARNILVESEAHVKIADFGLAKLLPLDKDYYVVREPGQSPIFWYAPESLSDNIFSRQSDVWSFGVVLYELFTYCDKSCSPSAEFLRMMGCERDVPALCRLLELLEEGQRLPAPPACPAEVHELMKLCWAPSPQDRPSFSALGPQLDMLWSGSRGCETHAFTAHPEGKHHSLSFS
Outline: (§1)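 Insect-cell-expressed catalytic domains (JAK1 aa 866-1154, 440 ng/mL; JAK2 aa 808-1132, 11 ng/mL; JAK3 aa 781-1124, 400 ng/mL; TYK2 aa 833-1187, 200 ng/mL) preincubated 15 min with compound, then reacted 1 h at room temperature with 100 nM GFP-STAT1 and 1 mM ATP. pTyr701 detected by TR-FRET (terbium antibody); IC50 from 10-dose sigmoid fits.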

[3] = test system: human Janus kinase 3 (JAK3), recombinant catalytic domain; assay: LanthaScreen TR-FRET enzymatic assay, JAK3; assay type: biochemical; settings: ratio of IC50 against JAK3 over IC50 against JAK1
Outline: as §1

[4] = Sprague-Dawley, plasma, IV, single dose 1.00 mg/kg
[5] = Sprague-Dawley, plasma, PO, single dose 5.00 mg/kg

F ([1]; PO, single dose 5.00 mg/kg): 46.7 ± 7.3%
AUC(0-t) [1, 4]: 677 ± 122 ng·h/mL
MRT [1, 4]: 1.4 ± 0.2 h
clearance [1, 4]: 24.8 mL/min/kg
half-life [1, 4]: 84 ± 18 min
Vd ([1]; Sprague-Dawley, plasma, IV, single dose 1.00 mg/kg, read-out: Vz): 2.98 ± 0.912 L/kg
AUC(0-t) [1, 5]: 1590 ± 253 ng·h/mL
Cmax [1, 5]: 571 ± 190 ng/mL
MRT [1, 5]: 2.3 ± 0.4 h
Tmax [1, 5]: 37.8 ± 15 min
half-life [1, 5]: 114 ± 18 min
IC50 [2]: > 5 µM
SMILES: O=C(Nc1cn2c(-c3ccc(CN4CCS(=O)(=O)CC4)cc3F)cccc2n1)C1CC1 [Compound 14]
Selectivity JAK3/JAK1 [3]: A′ (A′ represents a ratio of greater than 8)
